IC50 data for 51 compounds are collected here from patent US20260138988A1, “Spiropyrrolidine Derived Antiviral Agents” (Enanta Pharmaceuticals, Inc., priority 2021, published 2026).

Like-named read-outs stand apart in the source and are kept apart here. Some results are limits rather than exact numbers.

The target in this experiment is SARS-CoV-2 3CL-protease (Severe acute respiratory syndrome coronavirus 2, UniProt P0DTD1). Nature of the experiment: SARS-CoV-2 3C-Like (3CL) Protease Fluorescence Assay (FRET). Particulars: test compounds 0-10 μM, duplicate. It counts as biochemical.
Where [1] appears, read: SARS-CoV-2 3CL-protease 10 nM, read-out: IC50.

For the compound `CC(C)(C)C[C@H](NC(=O)[C@H](CC1CC1)NC(=O)C1CCC1)C(=O)N1C[C@]2(C[C@H]1C#N)C(=O)Nc1ccccc12` [Example 320], the IC50 under setting [1] is less than 100 nM.

With `C[C@H](NC(=O)C(F)(F)c1ccc(F)cc1)C(=O)N(C)[C@@H](CC(C)(C)C)C(=O)N1C[C@]2(C[C@H]1C#N)C(=O)Nc1ccccc12` [Example 308], the half-inhibitory concentration (IC50) under setting [1] is less than 100 nM.

Regarding `CN(C(=O)c1cc2c([nH]1)CN(C(=O)C(F)(F)F)CC2)[C@@H](CC(C)(C)C)C(=O)N1C[C@]2(C[C@H]1C#N)C(=O)Nc1ccccc12` [Example 175], the IC50 under setting [1] was 100 to 1000 nM.

`CC(C)(C)C[C@H](NC(=O)[C@@H](Nc1ccc(F)cc1)C1CC1)C(=O)N1C[C@]2(C[C@H]1C#N)C(=O)Nc1ccccc12` [Example 338]: the half-inhibitory concentration (IC50) under setting [1] was less than 100 nM.

For the compound `CC(C)C[C@@H](C(=O)N1C[C@]2(C[C@H]1C#N)C(=O)Nc1ccccc12)N(C)C(=O)[C@H](C)NC(=O)C1(F)CC2(CCC2)C1` [Example 141], under setting [1], the IC50 is less than 100 nM.

`[2H]C([2H])([2H])N(C(=O)[C@H](C)NC(=O)C(F)(F)C(F)(F)F)[C@@H](CCCC)C(=O)N1C[C@]2(C[C@H]1C#N)C(=O)Nc1ccccc12` [Example 192]: the IC50 under setting [1] was less than 100 nM.

Turning to `CC(C)C[C@@H](C(=O)N1C[C@]2(C[C@H]1C#N)C(=O)Nc1ccccc12)N(C)C(=O)[C@H](C)NC(=O)c1cc2[nH]ccc2cc1F` [Example 186], the half-maximal inhibitory concentration (IC50) under setting [1] is less than 100 nM.

Take `CC(C)C(NC(=O)C(F)(F)F)C(=O)N1CC[C@H](c2ccccc2)[C@H]1C(=O)N1C[C@]2(C[C@H]1C#N)C(=O)Nc1ccccc12` (stereo partly drawn) [Example 344]: the half-maximal inhibitory concentration (IC50) under setting [1] is less than 100 nM.

In the case of `CCN(C(=O)[C@H](C)NC(=O)c1ccc(F)cc1)[C@@H](CC(C)C)C(=O)N1C[C@]2(C[C@H]1C#N)C(=O)Nc1ccccc12` [Example 372], under setting [1], the IC50 was less than 100 nM.

On to `C[C@H](NC(=O)c1cccc2cc(Cl)ccc12)C(=O)N(C)[C@@H](CC(C)(C)C)C(=O)N1C[C@]2(C[C@H]1C#N)C(=O)Nc1ccccc12` [Example 284], for which the half-maximal inhibitory concentration (IC50) under setting [1] is less than 100 nM.

In the case of `CC(C)C[C@@H](C(=O)N1C[C@]2(C[C@H]1C#N)C(=O)Nc1ccccc12)N(C)C(=O)[C@H](C)NC(=O)C1CC1(C)C` (stereo partly drawn) [Example 265], the half-maximal inhibitory concentration (IC50) under setting [1] is less than 100 nM.

With `CC(C)(C)C[C@H](NC(=O)[C@H](CC1CC1)NC(=O)c1cc(F)c2nn(C3CC3)cc2c1)C(=O)N1C[C@]2(C[C@H]1C#N)C(=O)Nc1ccccc12` [Example 305], under setting [1], the concentration for half-maximal inhibition (IC50) was less than 100 nM.

For the compound `C[C@H](NC(=O)C(F)(F)C(F)(F)F)C(=O)N(C)[C@@H](CC1CC1)C(=O)N1C[C@]2(C[C@H]1C#N)C(=O)Nc1ccccc12` [Example 205], the half-inhibitory concentration (IC50) under setting [1] was less than 100 nM.

As for `CC(C)C[C@@H](C(=O)N1C[C@]2(C[C@H]1C#N)C(=O)Nc1ccccc12)N(C)C(=O)[C@@H]1C[C@H]2C[C@H]2N1C1CC1` [Example 258], the IC50 under setting [1] is less than 100 nM.

In the case of `C[C@H](NC(=O)C(F)(F)F)C(=O)N[C@@H](CC(C)(C)C)C(=O)N1C[C@]2(C[C@H]1C#N)C(=O)Nc1ccccc12` [Example 222], the IC50 under setting [1] is less than 100 nM.

In the case of `CC(C)C[C@@H](C(=O)N1C[C@]2(C[C@H]1C#N)C(=O)Nc1ccccc12)N(C)C(=O)[C@@H]1CC2(CC2)CN1C(C)C` [Example 241], the IC50 under setting [1] was less than 100 nM.

Regarding `CCN(C(=O)[C@H](C)NC(=O)c1ccc(OC(F)(F)F)cc1)[C@@H](CC(C)C)C(=O)N1C[C@]2(C[C@H]1C#N)C(=O)Nc1ccccc12` [Example 361], the 50% inhibitory concentration (IC50) under setting [1] is less than 100 nM.

Regarding `C[C@H](NC(=O)C(F)(F)C(F)(F)F)C(=O)N(C)[C@@H](CC(C)(C)C)C(=O)N1C[C@]2(C[C@H]1C#N)C(=O)Nc1ccc(Cl)cc12` [Example 174], the IC50 under setting [1] was less than 100 nM.

Turning to `C[C@H](NC(=O)C(F)(F)C(F)(F)F)C(=O)N(C)[C@@H](CC1CC1)C(=O)N1C[C@]2(C[C@H]1C#N)C(=O)Nc1ccc(Br)cc12` [Example 167], the half-inhibitory concentration (IC50) under setting [1] was less than 100 nM.

On to `C[C@H](NC(=O)C(F)(F)C(F)(F)F)C(=O)N(C)[C@@H](CC(C)(C)C)C(=O)N1C[C@]2(C[C@H]1C#N)C(=O)Nc1c(Cl)cc(Cl)cc12` [Example 173], for which the concentration for half-maximal inhibition (IC50) under setting [1] was less than 100 nM.

Regarding `CC(C)C[C@@H](C(=O)N1C[C@]2(C[C@H]1C#N)C(=O)Nc1ccccc12)N(C)C(=O)[C@H](C)NC(=O)C12CC(C(F)(F)F)(C1)C2` [Example 279], the half-inhibitory concentration (IC50) under setting [1] is less than 100 nM.

As for `CC(C)C[C@@H](C(=O)N1C[C@]2(C[C@H]1C#N)C(=O)Nc1ccccc12)N(C)C(=O)[C@@H]1CC2(CCCC2)CN1C(C)C` [Example 255], the IC50 under setting [1] is less than 100 nM.

For the compound `CC[C@H](NC(=O)C(=O)Nc1c(F)cccc1C(F)(F)F)C(=O)N(C)[C@@H](CC(C)C)C(=O)N1C[C@]2(C[C@H]1C#N)C(=O)Nc1ccccc12` [Example 193], under setting [1], the IC50 is less than 100 nM.

As for `CC(C)C[C@@H](C(=O)N1C[C@]2(C[C@H]1C#N)C(=O)Nc1ccccc12)N(C)C(=O)[C@H](C)NC(=O)C(=O)Nc1c(F)cccc1C(F)(F)F` [Example 202], the 50% inhibitory concentration (IC50) under setting [1] is less than 100 nM.

For `CC(C)C[C@@H](C(=O)N1C[C@]2(C[C@H]1C#N)C(=O)Nc1ccccc12)N(C)C(=O)[C@H](C)NC(=O)C(C)C` [Example 217], the 50% inhibitory concentration (IC50) under setting [1] is less than 100 nM.

For the compound `CC(C)C[C@@H](C(=O)N1C[C@]2(C[C@H]1C#N)C(=O)Nc1ccccc12)N(C)C(=O)[C@H](C)NC(=O)c1cccc2cc(F)ccc12` [Example 295], under setting [1], the IC50 is less than 100 nM.

With `CC(C)(C)C[C@H](NC(=O)c1ccc(F)cc1)C(=O)N[C@@H](CC(C)(C)C)C(=O)N1C[C@]2(C[C@H]1C#N)C(=O)Nc1ccccc12` [Example 225], the half-maximal inhibitory concentration (IC50) under setting [1] is less than 100 nM.

`C[C@@H](NC(=O)OCc1ccccc1)C(=O)N(C)[C@@H](CC(C)(C)C)C(=O)N1C[C@]2(C[C@H]1C#N)C(=O)Nc1ccccc12` [Example 307]: the IC50 under setting [1] is less than 100 nM.

In the case of `CC(C)C[C@@H](C(=O)N1C[C@]2(C[C@H]1C#N)C(=O)Nc1ccccc12)n1cccc(NS(=O)(=O)C2CC2)c1=O` [Example 353], under setting [1], the concentration for half-maximal inhibition (IC50) was less than 100 nM.

As to `C[C@H](NC(=O)c1ccc(F)cc1)C(=O)N(C)[C@@H](Cc1ccccc1)C(=O)N1C[C@]2(C[C@H]1C#N)C(=O)Nc1ccccc12` [Example 270], the 50% inhibitory concentration (IC50) under setting [1] is less than 100 nM.

`CC(C)(C)C[C@H](NC(=O)[C@H](CC1CC1)NC(=O)OC1CC1)C(=O)N1C[C@]2(C[C@H]1C#N)C(=O)Nc1ccccc12` [Example 331]: the IC50 under setting [1] fell in the range of 100 to 1000 nM.

For the compound `C[C@H](NC(=O)C12CC3CC(CC(C3)C1)C2)C(=O)N(C)[C@@H](CC(C)(C)C)C(=O)N1C[C@]2(C[C@H]1C#N)C(=O)Nc1ccccc12` [Example 310], the concentration for half-maximal inhibition (IC50) under setting [1] was less than 100 nM.

As for `C[C@H](NC(=O)C(F)(F)C(F)(F)C(F)(F)F)C(=O)N(C)[C@@H](CC1CC1)C(=O)N1C[C@]2(C[C@H]1C#N)C(=O)Nc1ccccc12` [Example 206], under “IC50, SARS-CoV-2 3CL-protease 10 nM”, the IC50 is less than 100 nM.

In the case of `C[C@H](NC(=O)C(C)(F)F)C(=O)N(C)[C@@H](CC(C)(C)C)C(=O)N1C[C@]2(C[C@H]1C#N)C(=O)Nc1ccccc12` [Example 288], the half-maximal inhibitory concentration (IC50) under setting [1] is less than 100 nM.

For `CCN1[C@@H]2C[C@@H]2C[C@H]1C(=O)N(C)[C@@H](CC(C)C)C(=O)N1C[C@]2(C[C@H]1C#N)C(=O)Nc1ccccc12` [Example 261], the IC50 under setting [1] was less than 100 nM.

In the case of `CC(C)C[C@@H](C(=O)N1C[C@]2(C[C@H]1C#N)C(=O)Nc1ccccc12)N(C)C(=O)[C@H](C)NC(=O)C(F)(F)C1CC1` [Example 285], the half-maximal inhibitory concentration (IC50) under setting [1] was less than 100 nM.

Regarding `CC(C)C[C@@H](C(=O)N1C[C@]2(C[C@H]1C#N)C(=O)Nc1ccccc12)N(C)C(=O)[C@H](C)NC(=O)C1(F)CCC1` [Example 272], under setting [1], the IC50 is less than 100 nM.

On to `CC(C)C[C@@H](C(=O)N1C[C@]2(C[C@H]1C#N)C(=O)Nc1ccccc12)N(C)C(=O)[C@H](C)NC(=O)c1cc2occc2cc1F` [Example 188], for which the half-inhibitory concentration (IC50) under setting [1] was less than 100 nM.

As for `C[C@H](NC(=O)C(F)(F)C(F)(F)F)C(=O)N(C)[C@@H](CC(C)(C)C)C(=O)N1C[C@]2(C[C@H]1C#N)C(=O)Nc1ccc(Br)cc12` [Example 171], the IC50 under setting [1] was less than 100 nM.

In the case of `CCN(C(=O)[C@H](C)NC(=O)C(F)(F)F)[C@@H](CC(C)C)C(=O)N1C[C@]2(C[C@H]1C#N)C(=O)Nc1ccccc12` [Example 365], the IC50 under setting [1] is less than 100 nM.

For the compound `CC(C)(C)C[C@H](NC(=O)[C@@H](NC(=O)C1CCC1)c1ccccc1)C(=O)N1C[C@]2(C[C@H]1C#N)C(=O)Nc1ccccc12` [Example 246], the IC50 under setting [1] is less than 100 nM.

Turning to `CC(C)(C)C[C@H](NC(=O)[C@H](CC1CC1)NC(=O)c1ccc(F)c(F)c1)C(=O)N1C[C@]2(C[C@H]1C#N)C(=O)Nc1ccccc12` [Example 326], under setting [1], the IC50 was less than 100 nM.

Consider `C[C@H](NC(=O)C12CC(C)(C1)C2)C(=O)N(C)[C@@H](CC(C)(C)C)C(=O)N1C[C@]2(C[C@H]1C#N)C(=O)Nc1ccccc12` [Example 309], for which the IC50 under setting [1] is less than 100 nM.

Regarding `CC(C)(C)C[C@H](NC(=O)[C@H](CC1CC1)NC1CCCCC1)C(=O)N1C[C@]2(C[C@H]1C#N)C(=O)Nc1ccccc12` [Example 316], under setting [1], the IC50 lay in the range of 100 to 1000 nM.

In the case of `CC(C)C[C@@H](C(=O)N1C[C@]2(C[C@H]1C#N)C(=O)Nc1ccccc12)N(C)C(=O)[C@H](C)NC(=O)C(C)(C)C(F)(F)F` [Example 283], the half-inhibitory concentration (IC50) under setting [1] was less than 100 nM.

Consider `CC(C)(C)C[C@H](NC(=O)[C@H](CC1CC1)NC(=O)c1ccc(C(C)(C)C)cc1)C(=O)N1C[C@]2(C[C@H]1C#N)C(=O)Nc1ccccc12` [Example 304], for which the IC50 under setting [1] was less than 100 nM.

Consider `CCN1[C@H](C(=O)N(C)[C@@H](CC(C)C)C(=O)N2C[C@]3(C[C@H]2C#N)C(=O)Nc2ccccc23)CCC1(C)C` [Example 240], for which the IC50 under setting [1] is less than 100 nM.

Take `CCN(C(=O)C(C)NC(=O)C12CC(C)(C1)C2)C(CC(C)C)C(=O)N1CC2(CC1C#N)C(=O)Nc1ccccc12` (stereo not drawn) [Example 367]: under setting [1], the IC50 was less than 100 nM.

On to `CCC(F)(F)C(=O)N[C@@H](C)C(=O)N(C)[C@@H](CC(C)C)C(=O)N1C[C@]2(C[C@H]1C#N)C(=O)Nc1ccccc12` [Example 271], for which the half-maximal inhibitory concentration (IC50) under setting [1] was less than 100 nM.

Turning to `C[C@H](NC(=O)C(F)(F)F)C(=O)N(C)[C@@H](C)C(=O)N1C[C@]2(C[C@H]1C#N)C(=O)Nc1ccccc12` [Example 204], the IC50 under setting [1] was less than 100 nM.

Turning to `CC(C)C[C@@H](C(=O)N1C[C@]2(C[C@H]1C#N)C(=O)Nc1ccccc12)N(C)C(=O)[C@H](C)NC(=O)C(F)(F)C(C)C` [Example 276], the IC50 under setting [1] was less than 100 nM.

The IC50 is the concentration that inhibits the measured activity by half.
